In the METLIN SMRT retention time set (Domingo-Almenara et al. 2019):

Experiment: gradient 5% acetonitrile 3 min, to 50% in 2 min, to 85% in 15 min, held 3 min, 100 µL/min
Conditions: column: Zorbax Extend-C18 2.1 x 50 mm; eluents: water / acetonitrile, 0.1% formic acid
Outline: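 Using water and acetonitrile that each contained 0.1% formic acid, mixtures of ~100 pure standards were separated at 100 μL/min on a Zorbax Extend-C18 column (2.1 × 50 mm, 1.8 μm). The HPLC fed a quadrupole time-of-flight mass spectrometer working in positive and negative ionization mode, with dead and dwell volumes of 40 μL and 900 μL. Data were acquired over 3 months. Retention time was read from computationally picked adduct peaks after manual inspection of each.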

SMILES: COc1cccc(OC)c1C(=O)Nc1ccc2c(c1)Sc1ncccc1C(=O)N2C
- RP-LC retention time: 706 s

SMILES: COC(=O)c1ccc(-c2nc3cnccn3c2Nc2cccc(Cl)c2C)cc1
- RP-LC retention time: 988 s

SMILES: CCOC(=O)c1ccc(NS(=O)(=O)c2cc3n(c2)CCCN(CC)C3=O)cc1
- RP-LC retention time: 759 s

SMILES: CCOc1ccc(CC(=O)N2CCN(c3ccc(NC(=O)c4ccccc4)nn3)CC2)cc1
- RP-LC retention time: 667 s

SMILES: CCOc1ccc(NC(=O)C2CCCN(c3ncnc4c3nc3n4CCCCC3)C2)cc1 (centres undefined)
- RP-LC retention time: 732 s

SMILES: CCOC(=O)Cc1ccc(NC(=O)N2CCc3cn(CC)c4cccc(c34)C2)cc1
- RP-LC retention time: 1020 s

SMILES: Cn1c(C(=O)N2CCN(c3ccccn3)CC2)cc2c(=O)oc3ccccc3c21
- RP-LC retention time: 607 s

SMILES: CCC(CC)NC(=O)C1CC(=O)N(CCc2c[nH]c3ccc(Cl)cc23)C1 (centres undefined)
- RP-LC retention time: 796 s

SMILES: Cc1cc(NC(=O)NCCn2nnc3cc(C(=O)N(C)C)ccc32)ccc1Br
- RP-LC retention time: 707 s

SMILES: Cc1ccc(C)c(CNc2nc3ccncc3n(Cc3ccccc3)c2=O)c1
- RP-LC retention time: 798 s

SMILES: CCOC(=O)c1cccc(N2C=C(C(=O)N3CCCC3)S(=O)(=O)c3ccccc32)c1
- RP-LC retention time: 802 s

SMILES: COCc1nc2cccnc2n1C1CCN(C(=O)Nc2ccc(Br)c(C)c2)CC1
- RP-LC retention time: 753 s

SMILES: CC(C)c1ccc(S(=O)(=O)N2CCC(C)(C(=O)NCc3ccccc3)CC2)cc1
- RP-LC retention time: 1050 s

SMILES: O=C(NCc1n[nH]c(=O)c2ccccc12)C1CC(=O)N(c2ccccc2)C1 (centres undefined)
- RP-LC retention time: 594 s

SMILES: COc1cc2c(cc1OC)C(=O)C(CC1CCN(Cc3ccccc3)CC1)C2 (centres undefined)
- RP-LC retention time: 690 s

SMILES: N#Cc1ccc(N2CCN(C(=O)COc3ccc4[nH]cc(CCN)c4c3)CC2)cc1
- RP-LC retention time: 684 s

SMILES: CN1C(=O)CCc2cc(NC(=O)Cc3cccs3)ccc21
- RP-LC retention time: 702 s

SMILES: Fc1ccc(-c2noc(-c3ccc(N4CCC5(CC4)OCCO5)nc3)n2)cc1
- RP-LC retention time: 1180 s

SMILES: CC(C)c1noc(C2(NC(=O)c3ccccc3F)CCCCC2)n1
- RP-LC retention time: 1020 s

SMILES: O=C(CC1CCN(C(=O)c2cc3cc(Cl)ccc3[nH]2)CC1)NCc1ccco1
- RP-LC retention time: 802 s

SMILES: CCOC(=O)CNC(=O)C1(C)Cn2c(ccc2-c2ccco2)C(=O)N1Cc1ccccc1Cl (centres undefined)
- RP-LC retention time: 876 s

SMILES: COc1cc(C)c(Cl)cc1S(=O)(=O)N1CCN(C(=O)c2ccco2)CC1
- RP-LC retention time: 797 s

SMILES: c1ccc(-c2cccc(-c3ccccn3)n2)nc1
- RP-LC retention time: 608 s

SMILES: COc1ccc(NC(=O)Cn2nc(C(=O)N3CCCC3)c3ccccc32)cc1
- RP-LC retention time: 800 s

SMILES: CCN1CCCc2cc(C(=O)NCc3cccc(OC)c3)sc21
- RP-LC retention time: 962 s

SMILES: COc1ccc(CC(=O)Nc2nnc(SCc3ccccc3F)s2)cc1OC
- RP-LC retention time: 824 s

SMILES: CCc1nnc(NC(=O)CN2C(=O)C3CCCCN3c3ccc(C(=O)N(C)C)cc32)s1 (centres undefined)
- RP-LC retention time: 700 s

SMILES: O=C([C@H]1C[C@@H](F)CN1S(=O)(=O)Cc1ccc(Cl)cc1)N1CCOCC1
- RP-LC retention time: 747 s

SMILES: CC1CCN(C(=O)c2ccc3c(c2)n(C)c(=O)c2ccnn23)CC1
- RP-LC retention time: 587 s

SMILES: CCC(NC(=O)c1cn(C)c2ncccc12)c1cccs1 (centres undefined)
- RP-LC retention time: 800 s

SMILES: Cn1cc(-c2ccncc2)cc1C(=O)N1CCN(c2ccccc2F)CC1
- RP-LC retention time: 650 s

SMILES: O=C(NCCN1CCc2ccccc2C1)C1CCCN(c2ncnc3c2nc2n3CCCCC2)C1 (centres undefined)
- RP-LC retention time: 622 s

SMILES: COc1cc(OC)cc(-c2cc3cnc(N)nc3nc2NC(=O)NC(C)(C)C)c1
- RP-LC retention time: 814 s

SMILES: O=C(c1nccc2ccccc12)N1CCC(c2noc(C3CC3)n2)C1 (centres undefined)
- RP-LC retention time: 745 s
